Source: US10952940B2, “Reagents and methods for mineralization of tooth enamel” (UNIVERSITY OF WASHINGTON, priority 2016, dated 2021)
“Also recorded” adds a separate entry of the source.

Assays:
Set-up in all cases: species or system human
[1] = Structural characterization of remineralized layer by TEM; conditions: TEM of fragments shaved off the surface; listed as group 6
Description: After remineralization steps were completed, TEM samples were collected by carefully shaving off the top most surface of the remineralized layer from the artificially created white spot lesion using a clean razor blade. The shaved particles were suspended in 100% ethanol, and the suspension was drop-casted onto a carbon coated TEM grid, which was then vacuum dried before TEM characterization. TEM bright field imaging (BF) imaging and selected areas diffraction were carried out using an FEI Tecnai (FEI, Hillboro, Oreg., USA) operating at 200 keV.
Structural and phase characterization of the samples from all groups were undertaken by transmission electron microscopy imaging and diffraction analysis. This is because x-ray diffraction characterization requires large enough volume with 10s of lam mass thickness and larger spatial sampling, 100s of μms or larger areas. Since the mineralized layer is thin, a few μms in all other group samples to 10 μm or so in group 6 samples using the peptide, TEM has been used to provide the most critical data, diffraction and phase identification. The TEM samples were prepared by gently shaving fragments off the surface of tooth specimens onto carbon-coated TEM grid to prepare and ensure electron transparent sections. All of the TEM data is included in FIG. 13 below for completeness (while only 1st, 4th and 6th columns of data were presented in FIG. 11).

[2] = Solution mineralization approach, color measurements with Chroma Meter; conditions: peptide 10 min, calcium/phosphate ions 2 hours, 37° C.; 25 rounds
Text: The root site of an extracted human tooth was removed and the crown portion of the tooth was sectioned vertically into half. A thin layer of enamel was removed from one half of the sectioned tooth such that the dentin layer is exposed without completely removing the enamel on the tooth. This allowed imaging of the enamel surfaces after the mineralization experiment without the problem of surface reflection, and provides a more parallel surface from which to compare the whiteness results. The sectioned tooth was fixed onto a glass slide with epoxy. Initial color measurements of each of the four sides of the sectioned tooth were obtained using a Minolta Chroma Meter CR-200 (Konica Minolta, Tokyo, Japan), according to manufacturer instructions, using a white background and a black background. The sectioned tooth was incubated in a mineralization polypeptide solution for 10 minutes at 37° C. and then in a solution with calcium ions and phosphate ions for 2 hours at 37° C. Color measurements of each of the four sides of the sample were taken as described initially. The sectioned was rinsed with deionized water and the remineralization process (incubation in polypeptide solution, incubation in solution of ion sources, and rinsing with deionized water) was repeated for a total of 25 rounds. The mineralization polypeptide was SYENSHSQAINVDRT (shADP5; SEQ ID NO:16).

[3] = Vicker's microhardness of mineralized tooth surface; conditions: 10 kg applied load, on the surface, n ≥ 20
Description: In addition to nanoindenation measurements, microhardness was also performed on the surface to quantitatively assess the mechanical properties of the mineral layers with larger areas and volumes including the underlying enamel as a composite. Vicker's microhardness was performed on at room temperature using Vicker's indenter on a Wilson Hardness Tukon 1202 microhardness tester at 10 kg applied load (Illinois Tool Works, Lake Bluff, Ill.). At least 20 measurements per group were recorded for obtaining an average and statistical analysis.
Microhardness and nanoindentation differ in both loading range and measurement method as shown in the schematic in FIG. 14 and, for these reasons, both were used in the present work to assess the mechanical durability of the remineralized layers on artificially formed lesions on intact human teeth. In the case of microhardness (Vickers indenter), the measurement was a static one in that the load was applied, released and hardness was obtained by measuring the post-indentation projected area of the indented region (foot print). This method therefore provides information about only the plastically deformed response (plastic deformation) of the material. Furthermore the load applied in this study was 10 kg, lowest allowable by the instrument.

[4] = Remineralization of artificial white spot lesions, SEM and EDXS analyses of new mineral layer; conditions: for thickness of newly formed mineral layer: SEM of cross-sectioned samples, 1 hour treatment
Text: Extracted teeth with no visible white spot lesions, caries, or any other kind of restorations were collected from dental clinics around the King County area (WA, USA) and disinfected in 10% aqueous bleach solutions. Prior to the experiments, the teeth were cleaned to remove visible blood, gross debris and soft connective tissue using a dental scaler under a light microscope.
Enamel was demineralized to create artificial lesions to mimic white spot lesions and/or incipient caries. The teeth were covered by lacquer leaving a 4-mm wide square window in the enamel close to cemento-enamel junction. The exposed areas of 4×4 mm enamel were treated with a cocktail of acetic acid/CaCl2/KH2PO4 for 2 weeks to establish up to 200 μm deep artificially created non-cavitated white spot lesions (WSL). Samples were then divided into control and test groups. Test groups were treated either with peptide, fluoride, or combination of both (Table 5).
Prior to remineralization, samples requiring peptide treatments (Groups 5 & 6) were incubated in 50 μL of 0.8 mM peptide dissolved in 50 mM Tris Buffer Solution (TBS) (pH:7.4) for 10 minutes at 37° C. Next, treatment samples were exposed to 50 mM TBS containing Ca^2+/PO4^3− (Groups 2, 5) or Ca^2+/PO4^3−/F^− (Groups 3, 4, 6) at concentrations as listed in Table 5 for 1 hour at 37° C., then rinsed with de-ionized (DI) water, dried by forced air and stored at room temperature until characterization.
After re-mineralization experiments were completed, secondary electron imaging (SEI) in the scanning electron microscope (SEM) was used to characterize the surface morphology and to show the thickness of newly formed mineral layer in cross-sections where applicable. Specimen preparation for SEM involved cutting a notch on the back side using a low speed saw (IsoMet™, Buehler, Lake Bluff, Ill., USA) before they were subjected to WSL formation and remineralization as described above. After remineralization step was completed, specimens were rinsed with DI water, air dried gently (<5 PSI), then carefully fractured into 2 pieces along the notch. One of the fractured pieces was mounted on a SEM stub with the mineralizing surface facing up for imaging the surface morphology and second piece was mounted with the cross-section facing up to show the thickness of mineral layer. Mounted specimens were then stored in vacuum for at least 2 hours to remove residual moisture which were then sputter coated with 5-nm thick platinum (SPI-Sputter Module Coater, SPI Supplies, West Chester, Pa., USA). SEM characterization was performed using an FEI Sirion microscope (Sirion, FEI, Hillboro, Oreg., USA) operating at 10 kV acceleration voltage. The chemical composition was measured by an onboard energy dispersive X-ray spectroscopy (EDXS) system (X-Max^N Si drift detector with AZtecEnergy software package, Oxford Instruments, Abingdon, Oxfordshire, UK). The measurements for each group were pooled from 5 specimens per group. The average values and standard deviations were calculated and expressed as the mean±standard error.

[5] = EDXS, 1 hour treatment at 37° C.

SYENSHSQAINVDRT [shADP5, 15-amino acid long amelogenin-derived peptide, shortened human ADP5]
structure of mineral found by TEM imaging and diffraction [1]: large particles (in the shown projection) of HAp; also recorded: HAp crystallites with aligned organization | whiteness of the tooth enamel [2]: improved with each round of remineralization | Hardness (Vicker's microhardness) ([3]; listed as Group 6 (shADP5)): 140.6 +/− 11.3 HV10, MPa | Hardness (Vicker's microhardness) ([3]; listed as group 6): 140.6+11.3 HV10, MPa | delivery of fluoride into the mineral layer ([4]; EDXS): allows the delivery and incorporation of fluoride ions into the remineralized layer even at low F concentrations | Possible Mineral Formed [4, 5]: Only HAP | Remineralized Layer Ca/O [4, 5]: 0.56 ± 0.13 | Remineralized Layer Ca/P ([4]; EDXS, 1 hour treatment at 37° C., listed as 6. Peptide only): 1.56 ± 0.12 | Remineralized Layer Ca/P ([4]; EDXS, 1 hour treatment at 37° C., listed as Group 6): 1.54±0.12 | Remineralized Layer Ca/P ([4]; EDXS, 1 hour treatment at 37° C., listed as Group-6): 1.56 | thickness of newly formed mineral layer ([4]; listed as Group 6): 10 μm | thickness of newly formed mineral layer ([4]; listed as Group-6): > 10 μm | thickness of newly formed mineral layer ([4]; listed as Peptide alone): 10 μm
